Measurements: patent US10865216B2, “Tricyclic Gyrase inhibitors” (MERCK SHARP & DOHME CORP., priority 2012, dated 2020)
In brackets after ≈: the same amount, converted by molar mass. Blank lines part the entries; values can stand above or below the compound they belong to.

Assays:
Format in all cases: cell-based
[1] = system: E. coli ATCC 25922; experiment: MIC, E. coli ATCC 25922; details: for MIC Ec: Table 18, Ec; for EC8 MIC: Table 11, L = CH2; for EC8 MIC / MIC: EC8 not defined; for MIC: Escherichia coli, ATCC25922, Table 16, new R4 substituents, read-out: EC8 MIC
[2] = system: S. aureus ATCC 13709; experiment: MIC, S. aureus ATCC 13709; details: for MIC Sa: Table 18, Sa; for MIC: Staphylococcus aureus, ATCC13709, Table 16, new R4 substituents, read-out: SA MIC
[3] = system: S. pneumoniae ATCC 51916; experiment: MIC, S. pneumoniae ATCC 51916; details: Table 17; comparative; Spn52 not defined
[4] = system: P. aeruginosa ATCC 15692; experiment: MIC, P. aeruginosa ATCC 15692; details: Table 17; comparative, new species of R2
[5] = Table 11, compounds wherein L = CH2

SMILES: CNc1cc(F)cc2c1[nH]c1nc(Cc3cnn(C)c3)nc(N3C[C@H]4C[C@@H]3C[C@H]4N)c12 [drawing 1734]
EC8 MIC [1]: 8 µg/mL
SA MIC [2, 5]: 1 µg/mL

SMILES: CNc1cc(F)cc2c1[nH]c1nc(Cc3cnc(C)nc3)nc(N3CC4C(N)C4C3)c12 (stereo not shown) [drawing 1736]
EC8 MIC [1]: 0.25 µg/mL
SA MIC [2, 5]: ≤ 0.5 µg/mL

SMILES: CNc1cc(F)cc2c1[nH]c1nc(Cc3cnc(C)nc3)nc(N3CC4C(N)C4C3)c12 (stereo not shown) [drawing 1737]
EC8 MIC [1]: 0.25 µg/mL
SA MIC [2, 5]: ≤ 0.5 µg/mL

SMILES: CNc1cc(F)cc2c1[nH]c1nc(Oc3cnc(C)nc3)nc(N3CC(N)C(C(=O)NCC(C)O)C3)c12 (stereo not shown) [drawing 1822]
MIC [1]: > 16 µg/mL
MIC [2]: 8 µg/mL (≈ 15.7 µM)

SMILES: CNc1cc(F)cc2c1[nH]c1nc(Oc3cnc(C)nc3)nc(N3CC(N)C(C(=O)NCCN4CCOCC4)C3)c12 (stereo not shown) [drawing 1823]
MIC [1]: > 16 µg/mL
MIC [2]: 16 µg/mL (≈ 28.3 µM)

SMILES: CNc1cc(F)cc2c1[nH]c1nc(Oc3cnc(C)nc3)nc(N3CC(N)C(C(F)(F)F)C3)c12 (stereo not shown) [drawing 1824]
MIC [1]: > 16 µg/mL
MIC [2]: ≤ 0.5 µg/mL

SMILES: CNc1cc(F)cc2c1[nH]c1nc(Oc3cnc(C)nc3)nc(N3CC(N)C(C(=O)OC)C3)c12 (stereo not shown) [drawing 1825]
MIC [1]: 1 µg/mL (≈ 2.14 µM)
MIC [2]: ≤ 0.5 µg/mL

SMILES: CNc1cc(F)cc2c1[nH]c1nc(Oc3cnc(C)nc3)nc(N3CC(N)C(C(=O)N4CCOCC4)C3)c12 (stereo not shown) [drawing 1827]
MIC [1]: 16 µg/mL (≈ 30.7 µM)
MIC [2]: 1 µg/mL (≈ 1.92 µM)

SMILES: CNc1cc(F)cc2c1[nH]c1nc(Oc3cnc4c(C)cnn4c3)nc(N3C[C@H]4C[C@@H]3C[C@H]4N)c12 [drawing 1831]
Spn52 MIC [3]: ≤ 1 ng/mL
PA MIC [4]: 0.5 µg/mL
SA MIC ([2]; Table 17, comparative, new species of R2): ≤ 0.016 µg/mL

Results, then the compound that gave them:

MIC Ec [1]: ≤ 0.5 µg/mL
MIC Sa [2]: ≤ 0.5 µg/mL
SMILES: CNc1cc(F)cc2c1[nH]c1nc(Oc3cnc4cc[s+]([O-])c4c3)nc(N3C[C@H]4C[C@@H]3C[C@H]4N)c12 (stereo partly shown) [Compound 10.109]

MIC Ec [1]: ≤ 0.5 µg/mL
MIC Sa [2]: ≤ 0.5 µg/mL
SMILES: C=Cc1cc(F)c(F)c2c1[nH]c1nc(Oc3cnc(C)nc3)nc(N3C[C@H]4C[C@@H]3C[C@H]4N)c12 [Compound 10.110]

MIC Ec [1]: ≤ 0.5 µg/mL
MIC Sa [2]: ≤ 0.5 µg/mL
SMILES: CNc1cc(F)cc2c1[nH]c1nc(Oc3cnc4cc[s+]([O-])c4c3)nc(N3CC4(CC[C@H]4N)C3)c12 (stereo partly shown) [Compound 10.111]

MIC Ec [1]: ≤ 0.5 µg/mL
MIC Sa [2]: ≤ 0.5 µg/mL
SMILES: CNc1cc(F)c(F)c2c1[nH]c1nc(Oc3cnc(C(C)O)nc3)nc(N3CCC4(CCCC4N)C3)c12 (stereo not shown) [Compound 10.112]

MIC Ec [1]: ≤ 0.5 µg/mL
MIC Sa [2]: ≤ 0.5 µg/mL
SMILES: CNc1cc(F)cc2c1[nH]c1nc(Oc3cnc(C)nc3)nc(N3CCC(C(C)=O)C3)c12 (stereo not shown) [Compound 10.113]

MIC Ec [1]: ≤ 0.5 µg/mL
MIC Sa [2]: ≤ 0.5 µg/mL
SMILES: CNc1cc(F)cc2c1[nH]c1nc(Oc3cnc(C)nc3)nc(N3C[C@H]4C[C@@H]3C[C@H]4NCCO)c12 [Compound 10.114]

MIC Ec [1]: 1 µg/mL (≈ 1.91 µM)
MIC Sa [2]: ≤ 0.5 µg/mL
SMILES: CNc1cc(F)cc2c1[nH]c1nc(Oc3cnc(C)nc3)nc(N3C[C@H]4C[C@@H]3C[C@H]4N(CCO)CCO)c12 [Compound 10.115]

MIC Ec [1]: ≤ 0.5 µg/mL
MIC Sa [2]: ≤ 0.5 µg/mL
SMILES: CNc1cc(F)cc2c1[nH]c1nc(Oc3cnc([C@@H](C)O)nc3)nc(N3CCOCC3)c12 [Compound 10.116]

MIC Ec [1]: ≤ 0.5 µg/mL
MIC Sa [2]: ≤ 0.5 µg/mL
SMILES: CNc1cc(F)cc2c1[nH]c1nc(Oc3cnc(C(C)OC)nc3)nc(N3CC4CC4C3)c12 (stereo not shown) [Compound 10.117]
